Test results published in ChEMBL document CHEMBL5674860, “Optimized Dual-Glo Assay to identify co-culture-induced drug vulnerabilities in 3D CRC models” (2024).

Legend:
Assay type in all cases: functional, Homo sapiens
Design in all cases: dose or concentration left out as unconfirmed
[1] = tested on: Colon cancer organoid; experiment: Optimized Dual-Glo assay to identify co-culture induced drug vulnerabilities using donated chemical probes and chemogenomics kinase set in O06 CRC organoid and F06 CAF mono and co-culture. […] Cell viability is reported both mono and co-culture models.
[2] = tested on: Colon cancer organoid; experiment: Optimized Dual-Glo assay to identify co-culture induced drug vulnerabilities using donated chemical probes and chemogenomics kinase set in O14 CRC organoid and F14 CAF mono and co-culture. […] Cell viability is reported both mono and co-culture models.
[3] = tested on: Colon cancer organoid; experiment: Optimized Dual-Glo assay to identify co-culture induced drug vulnerabilities using donated chemical probes and chemogenomics kinase set in O20 CRC organoid and F20 CAF mono and co-culture. […] Cell viability is reported both mono and co-culture models.
[4] = Culture type Co-Culture, Transduced with Lucferase2-P2A-EGFP lentivirus
[5] = Culture type Co-Culture, Transduced with Renilla-dsRed lentivirus
[6] = Culture type Mono-Culture, Transduced with Lucferase2-P2A-EGFP lentivirus
[7] = Culture type Mono-Culture, Transduced with Renilla-dsRed lentivirus

SMILES	Cell Viability [1, 4] [%]	Cell Viability [1, 5] [%]	Cell Viability [1, 6] [%]	Cell Viability [1, 7] [%]	Cell Viability [2, 4] [%]	Cell Viability [2, 5] [%]	Cell Viability [2, 6] [%]	Cell Viability [2, 7] [%]	Cell Viability [3, 4] [%]	Cell Viability [3, 5] [%]	Cell Viability [3, 6] [%]	Cell Viability [3, 7] [%]
Cc1c(Oc2ccc(F)cc2)c(OC(C)C)nn1-c1ccc(C2CC2)cn1 [IPP/CNRS-A019]	92.46	90.9232	83.1676	103.472	97.1985	110.863	115.046	92.4816	91.1919	118.396	98.5803	101.782
CCOC(=O)CCNc1cc(N2CCc3ccccc3CC2)nc(-c2cccnc2)n1	130.773	124.082	90.274	111.34	62.9469	109.109	99.8423	94.8955	102.18	131.422	61.9891	99.1525
Cn1cc(C2=C(c3cn(C4CCN(Cc5ccccn5)CC4)c4ccccc34)C(=O)NC2=O)c2ccccc21 [ENZASTAURIN]	65.6638	92.7001	58.602	101.572	77.4844	94.2381	86.5336	83.0179	54.9568	78.6109	53.3905	66.2903
CCS(=O)(=O)Nc1ccc(Oc2ccc(F)cc2F)c(-c2cn(C)c(=O)c3[nH]ccc23)c1 [MIVEBRESIB]	13.1828	272.686	12.7607	153.585	11.3223	338.596	8.201	180.439	5.728	64.2458	7.404	12.1973
C[C@H](NC(=O)c1cnc2n1[C@](C)(Cc1ccc(C#N)cc1)C(=O)N2c1cc(Cl)c(F)c(Cl)c1)C(=O)NC1(c2ccccn2)CC1 [BI 1950]	123.241	151.567	111.279	104.666	114.581	100.802	131.753	112.137	121.807	97.0159	112.646	94.255
Cn1c(C2(NC(=O)c3ccc(NCC4CCCCC4)nc3)CCC2)nc2ccc(/C=C/C(=O)O)cc21 [BI 7656]	130.07	105.71	133.812	120.577	115.178	112.206	113.679	103.836	93.1126	134.723	113.339	113.787
Cc1cc(C)cc([C@H]2c3cc(C)ccc3NC(=O)CN2C(=O)c2ccc(Br)s2)c1	94.0417	115.465	159.24	104.104	84.3524	110.086	124.101	91.0337	134.503	98.7461	124.059	79.4319
CCC(=O)N1CCN(c2ccc(-n3c(=O)ccc4cnc5ccc(-c6cnc7ccccc7c6)cc5c43)cc2C(F)(F)F)CC1 [TORIN1]	4.705	40.1911	4.406	17.8443	6.678	21.6908	9.433	15.03	7.384	44.8651	4.069	24.9993
Cc1c(C(=O)Nc2ccc(Oc3ccnc4[nH]cc(-c5ccccc5)c34)c(F)c2)c(=O)n(-c2ccc(F)cc2)n1C	73.6786	56.2803	78.2312	39.3734	84.4536	22.1268	155.311	25.4653	223.97	22.9382	217.145	43.0843
O=C(Nc1cccnc1)c1cc(-c2ccnc(F)c2)ccc1OCc1ccccc1	87.3368	83.1264	73.6273	99.0368	118.198	103.257	132.36	106.667	125.655	104.766	84.3573	88.986
O=C(NC[C@H](O)CN1CCc2ccccc2C1)c1ccnc(NC2CCC2)c1	33.1368	110.399	67.3977	84.1228	29.3409	134.373	40.919	88.6314	42.8317	143.569	53.6752	63.4646
CO[C@@H](C)c1c(Nc2ccc([C@@H](N(C)C(=O)C3CCS(=O)(=O)CC3)C(F)(F)F)cc2)cnc2cc(Cl)nn12 [NVS-MALT1-C]	50.6957	73.6522	67.3669	85.1011	62.8563	80.6398	85.3196	104.147	83.6241	108.215	61.6775	90.6676
COc1cc(C(=O)N2CC[C@@H](O)[C@@H](N)C2)cc2nc(-c3cc4ccccc4n3CC3CC3)n(C)c12.Cl	124.227	121.721	98.6493	122.476	132.512	122.105	79.0484	89.8768	98.8385	114.018	83.2381	78.6997
CC1=C(C#N)C(c2ccc3[nH]nc(C)c3c2)C(C#N)=C(C)N1 [BAY-474]	148.587	192.268	98.9453	96.2381	198.7	101.908	71.8172	85.997	81.7867	102.241	98.8764	79.7467
